Experimental data as given in US20260000781A1, “FC CONJUGATES INCLUDING AN INHIBITOR OF CD73 AND USES THEREOF” (Cidara Therapeutics, Inc., priority 2022, published 2026).

How the values were obtained:
[1] = test system: colon tumor cell line CT26; test: Syngeneic mouse tumor efficacy model with colon tumor cell line CT26; assay type: in vivo; details: CT26, Day 10, 210 mg/kg/wk (30 mg/kg IP daily)
Procedure: Tumor efficacy models were conducted in female BALB/c mice (Charles River; 18-22 g) injected with the colon tumor cell line CT26 (ATCC; CRL-2638). Briefly, CT26 cells freshly prepared and resuspended in PBS were injected SC into the shaved right flank of mice. Tumors were allowed to grow until they became measurable (˜50 mm^3) (typically after 7-10 days of growth). Mice were then randomized so each starting group had approximately the same tumor group average (typical+/−5 mm^3) and treatment initiated. Each group consisted of 10 animals. Conjugate 133a was dosed at 20 mg/kg via intraperitoneal (IP) injection on MWF, for 2 weeks. […] The study also included a vehicle (PBS) only treatment group with the aforementioned schedule. After initiation of treatment tumors were measured 3×/week with tumor volumes calculated based on the following formula: (width×width×length)/2. All tumors were monitored until the maximum allowed volume was reached (=>2,000 mm^3).
Tumor efficacy models were conducted in female BALB/c mice (Charles River; 18-22 g) injected with the colon tumor cell line CT26 (ATCC; CRL-2638). […] After initiation of treatment tumors were measured 3×/week with tumor volumes calculated based on the following formula: (width×width×length)/2. All tumors were monitored until the maximum allowed volume was reached (=>2,000 mm^3). […]

human T cells = test: Rescue of T cell activation in the presence of AMP; assay type: cell-based; details: CD25, 72 h
Procedure: Human T cells (cat. no. 72400, Stem Cell Tech) were activated with anti-CD3/CD28/CD2 T cell activator (cat. no. 10970, Stem Cell Technologies) and seeded at 1×10^5 cells/well in ImmunoCult™—XF T Cell Expansion medium into 96-well tissue culture-treated plates. Test articles were added at concentrations ranging from 1 to 10,000 nM. Next, adenosine 5′-monophosphate (AMP; cat. no 01930, Sigma) was added at 30 μM or 100 μM. Cells, test articles and AMP were incubated at 37° C., 5% CO2 for 72 h. After 72 h, cell supernatant was removed, and T cells were washed in staining buffer prior to staining for CD25 with anti-human CD25 PE antibody (cat. no 60153PE, Stem Cell Technologies, clone 2A3). After staining, cells were washed in staining buffer. 10,000 events were collected on flow cytometer Northern Lights (Cytek). Percent rescue versus concentration were plotted using GraphPad Prism Version 8 and EC50's calculated using nonlinear regression analysis ([inhibitor]vs normalized response).

[2] = target: T1, surface-expressed CD73 on human PBMCs (Homo sapiens, UniProt P21589); test: Human immune cell-based CD73 enzyme inhibition assay (PBMCs); details: AMP 300 μM, 2.5-3 h
T1 construct: 72400 (T cells); host or cells: human PBMCs / human T cells
T1 sequence (P21589 27-549): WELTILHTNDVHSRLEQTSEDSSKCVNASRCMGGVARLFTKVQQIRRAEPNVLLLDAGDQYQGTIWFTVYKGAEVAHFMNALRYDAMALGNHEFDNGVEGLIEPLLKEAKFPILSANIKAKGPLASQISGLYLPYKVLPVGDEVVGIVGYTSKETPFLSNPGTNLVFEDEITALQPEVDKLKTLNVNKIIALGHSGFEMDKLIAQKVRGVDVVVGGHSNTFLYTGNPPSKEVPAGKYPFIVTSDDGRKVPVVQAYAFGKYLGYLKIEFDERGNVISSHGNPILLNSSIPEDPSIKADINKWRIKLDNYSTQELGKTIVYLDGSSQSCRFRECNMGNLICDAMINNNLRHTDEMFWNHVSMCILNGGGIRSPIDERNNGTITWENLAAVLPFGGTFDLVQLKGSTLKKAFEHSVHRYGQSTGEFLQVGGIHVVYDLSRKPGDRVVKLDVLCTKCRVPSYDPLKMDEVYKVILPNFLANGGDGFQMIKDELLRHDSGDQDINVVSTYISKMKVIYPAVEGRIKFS
Procedure: The human immune cell-based CD73 enzyme inhibition assay was performed essentially as described above For the cell-free assay, with the following modifications. Human PBMCs (cat. no. HUMAN-PBMC-U-211140) or T cells (cat. no. 72400, Stem Cell Tech) were seeded at 8×10^3 cells/well into 96-well tissue culture-treated plates. […] Percent CD73 inhibition versus concentration were plotted using GraphPad Prism Version 8 and IC50's calculated using nonlinear regression analysis ([inhibitor]vs normalized response).

| EC50 (human T cells; 30 μM AMP) [nM] | EC50 (human T cells; 100 μM AMP) [nM] | IC50 [2] [nM] | SMILES | reduction in tumor volume compared to the vehicle group [1] [%] |
| --- | --- | --- | --- | --- |
| – | – | – | C[C@H](Nc1cc(Cl)nc2c1cnn2[C@@H]1O[C@H](COP(=O)(O)CP(=O)(O)O)[C@@H](O)[C@H]1O)c1ccccc1F [AB680] | 50.7 |
| 2.88 | 8.37 | 0.02 | COC[C@](CO)(OC[C@H]1O[C@@H](n2ncc3c(NC4CCCC4)nc(Cl)nc32)[C@H](O)[C@@H]1O)P(=O)(O)O [OP5244] | – |
